In ChEMBL document CHEMBL3132841, “Synthesis and biological evaluation of coumarin1,2,3-triazoledithiocarbamate hybrids as potent LSD1 inhibitors” (Medchemcomm, 2014):
Calls of active or inactive are those of the source. No cut-off for these calls is given here.

Columns and labels:
[1] = target: T1, Amine oxidase [flavin-containing] A (Homo sapiens, UniProt P21397)
T1 sequence (P21397 whole entry): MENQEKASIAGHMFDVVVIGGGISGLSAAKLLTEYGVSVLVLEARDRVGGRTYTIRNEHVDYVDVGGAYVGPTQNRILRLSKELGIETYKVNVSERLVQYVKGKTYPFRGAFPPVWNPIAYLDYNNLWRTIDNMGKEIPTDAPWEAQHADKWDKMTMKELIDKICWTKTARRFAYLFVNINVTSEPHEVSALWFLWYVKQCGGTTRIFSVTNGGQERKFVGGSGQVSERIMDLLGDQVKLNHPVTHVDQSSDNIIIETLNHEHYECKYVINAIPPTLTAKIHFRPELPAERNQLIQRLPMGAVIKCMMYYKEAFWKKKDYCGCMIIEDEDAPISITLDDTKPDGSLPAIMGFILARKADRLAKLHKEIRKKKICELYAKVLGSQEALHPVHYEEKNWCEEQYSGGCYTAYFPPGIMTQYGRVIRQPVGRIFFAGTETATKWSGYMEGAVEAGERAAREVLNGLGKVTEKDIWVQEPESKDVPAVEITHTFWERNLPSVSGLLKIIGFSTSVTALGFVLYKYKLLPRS
Description: Inhibition of MAO-A (unknown origin)

[2] = target: T2, Amine oxidase [flavin-containing] B (Homo sapiens, UniProt P27338)
T2 sequence (P27338 whole entry): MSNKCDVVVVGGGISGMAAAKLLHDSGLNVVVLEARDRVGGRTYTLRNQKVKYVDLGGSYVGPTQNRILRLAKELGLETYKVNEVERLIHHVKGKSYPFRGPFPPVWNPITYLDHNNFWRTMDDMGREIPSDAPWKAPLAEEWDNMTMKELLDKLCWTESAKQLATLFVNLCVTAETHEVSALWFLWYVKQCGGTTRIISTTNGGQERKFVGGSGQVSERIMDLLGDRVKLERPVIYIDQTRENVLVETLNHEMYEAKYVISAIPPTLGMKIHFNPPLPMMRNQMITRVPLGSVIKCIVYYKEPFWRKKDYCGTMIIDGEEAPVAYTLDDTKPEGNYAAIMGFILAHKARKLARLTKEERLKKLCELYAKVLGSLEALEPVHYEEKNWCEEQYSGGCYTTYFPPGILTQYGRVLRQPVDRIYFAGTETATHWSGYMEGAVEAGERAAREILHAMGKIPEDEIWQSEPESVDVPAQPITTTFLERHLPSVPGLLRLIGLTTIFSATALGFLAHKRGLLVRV
Description: Inhibition of MAO-B (unknown origin)

MGC-803 = assay: Effect on total H3 protein expression in human MGC803 cells at 0.1 to 0.5 uM after 48 hrs by Western blot analysis; format: functional, cell-based
[3] = target: Lysine-specific histone demethylase 1A (Homo sapiens, UniProt O60341)
Description: Inhibition of recombinant human LSD1 expressed in Escherichia coli BL21(DE3) using H3K4me2 as substrate by fluorescence assay

SMILES | IC50 [3] | also measured
CC(C)(C)OC(=O)N1CCN(C(=S)SCc2cn(Cc3cc(=O)oc4cc(O)ccc34)nn2)CC1 | – | IC50 [1]: > 1250 µM; IC50 [2]: > 1250 µM; Activity (MGC-803): inactive
Cc1ccc2oc(=O)cc(Cn3cc(CSC(=S)N4CCN(C(=O)OC(C)(C)C)CC4)nn3)c2c1 | > 125 µM | –
CC(C)(C)OC(=O)N1CCN(C(=S)SCc2cn(Cc3cc(=O)oc4ccc(Cl)cc34)nn2)CC1 | > 125 µM | –
Cc1cc(O)cc2oc(=O)cc(Cn3cc(CSC(=S)N4CCN(C(=O)OC(C)(C)C)CC4)nn3)c12 | > 125 µM | –
CC(C)(C)OC(=O)N1CCN(C(=S)SCc2cn(Cc3cc4ccc(O)cc4oc3=O)nn2)CC1 | 103 µM | –
CC(C)(C)OC(=O)N1CCN(C(=S)SCc2cn(Cc3cc4ccccc4oc3=O)nn2)CC1 | > 125 µM | –
